Data taken from ChEMBL document CHEMBL1136335, “Structure elucidation of Sch 538415, a novel acyl carrier protein synthase inhibitor from a microorganism” (Bioorg Med Chem Lett, 2003).

Legend:
[1] = In vitro inhibitory activity against bacterial Holo-[acyl-carrier-protein] synthase; parameters: species or system Staphylococcus aureus
Staphylococcus aureus = experiment: Antibacterial activity against Staphylococcus aureus(FDA 209P strain) at a concentration of 5 ug; format: functional

Cc1cc(=O)n(C)c2c1C(=O)c1c(C)cc(=O)n(C)c1C2=O [DIAZAANTHRAQUINONE]
IC50 [1]: 4.19 µM
Zone of inhibition (Staphylococcus aureus): 12 mm
